139 compounds from the OPERA property sets (Mansouri et al. 2018) can be followed below.

Peptide text beside a SMILES is read from it. * marks the point of attachment. NHtBu = CC(C)(C)N*

What is called logP is the decadic logarithm of the partition coefficient of the neutral form, usually between octanol and water. A lower logP goes with lower lipophilicity.

`O=C(O)COc1cccc(I)c1` registered a log partition coefficient (logP) of 2.44.
The compound `FC(F)(F)C(F)(F)F` yielded a logP of 2.
In the case of `COCCOCC1COC(c2ccc(Cl)cc2Cl)(n2cncn2)O1` (centres undefined) it was 2.03; in that of `Cc1ccc(OCC(=O)O)cc1`, 1.86; in that of `Cc1c(I)c(=O)n(-c2ccccc2)n1C`, 1.27.
For the compound `O=C(O)c1cc(O)c(O)c(O)c1`, the lipophilicity (logP) was 0.7.
With `CCOC(=O)[C@H](CCc1ccccc1)N[C@@H](C)C(=O)N1CCC[C@H]1C(=O)O`, the lipophilicity (logP) turned out to be 0.07.
With `CN(C)CCN(C)S(=O)(=O)c1ccc(C(C)(C)[N+](=O)[O-])c([N+](=O)[O-])c1`, the logP was 1.42.
`CC(C)NNC(=O)COc1ccccc1Cl` returned a logP of 1.82.
Compound `Nc1ccc2cc3ccccc3nc2c1` came in with a lipophilicity (logP) of 2.77.
Turning to `CNC(=O)Oc1cc(C(C)C)cc(C(C)C)c1`, the logP came to 3.79.
In turn, `CCC1(C2=CCCCCC2)C(=O)NC(=O)NC1=O` registered a logP of 2.03.
In the case of `Brc1nc(Br)c(Br)[nH]1` it was 1.96; in that of `S=C1CCCCCN1`, 0.75.
On to `Nc1cccc2cc3ccccc3nc12`, for which the log partition coefficient (logP) was 3.26.
In turn, `CC(NNC(=O)COc1ccccc1)c1ccccc1` (centres undefined) had a lipophilicity (logP) of 2.46.
The compound `CCCCCCN(C)N=Nc1ccc(C(N)=O)cc1` had a logP of 3.69.
For `CCOC(=O)c1ccc(N=NN(C)CCO)cc1` the value was 2.66.
`CCOC(=O)C(=Cc1ccc([N+](=O)[O-])cc1)C(=O)OCC` registered a logP of 3.03.
Take `CCNC`: the log partition coefficient (logP) came out at 0.15.
Take `Cc1ccccc1N(C)C`: the logP was found to be 2.85.
Turning to `COc1c(C)ncc(CO)c1CO`, the log partition coefficient (logP) is -0.1.
Compound `O=[N+]([O-])c1ccc(OCC(O)CNCC(O)COc2ccccc2)cc1` (centres undefined) gave a logP of 2.62.
`OCCCCc1ccccn1` had a lipophilicity (logP) of 0.86.
For `O=[N+]([O-])c1ccc(O)c(O)c1` the value was 1.66.
In turn, `CN(C)C=CC#N` displayed a log partition coefficient (logP) of 0.47.
In the case of `CCc1ccccc1S(I)=C(N(C)C)N(C)C` (centres undefined), the logP was 0.32.
For `CP(C)c1ccccc1` the value was 2.57; for `CCSC(=O)N1CCCCCC1`, 3.21.
As for `CCOP(=S)(OCC)O/N=C(\C#N)c1ccccc1`, the log partition coefficient (logP) stood at 4.39.
Consider `Nc1ccc(Cl)cc1C(=O)O`, for which the logP is 1.57.
In the case of `CC(C)(O)C(C(=O)O)c1ccc(-c2ccccc2)cc1` (centres undefined) it was 3.25; in that of `N#Cc1ccccc1`, 1.56; in that of `O=C(OCn1ncc2c(=O)[nH]cnc21)c1ccc(CN2CCOCC2)cc1`, 1.12.
In turn, `CC1(C)Cc2cccc(O)c2O1` registered a logP of 2.08.
In turn, `ClC(Cl)(Cl)c1ccc(C(Cl)(Cl)Cl)cc1` showed a logP of 4.62.
In turn, `N#CCc1ccsc1` returned a log partition coefficient (logP) of 1.26.
Compound `CCCCC(=O)OCC1CCC(n2cnc3c(=O)[nH]cnc32)O1` (centres undefined) yielded a logP of 0.65.
For the compound `O=[N+]([O-])c1ccc(N=C=S)cc1`, the logP stood at 3.62.
Regarding `CCC[N+](=O)[O-]`, the logP came out at 0.87.
`Nc1ccc(C(=O)Oc2ccccc2)c(O)c1` showed a logP of 3.15.
Turning to `CC(=O)OC[C@H]1O[C@@H](n2ncc(=O)[nH]c2=O)[C@H](OC(C)=O)[C@@H]1OC(C)=O`, the logP is -0.2.
On to `COc1cc(SC)c(OC)cc1CCN`, for which the logP worked out at 1.81.
For `N=C(N)c1ccc(N)cc1`, the logP was -0.37.
Turning to `CC1=CC(=O)C=CC1=O`, the log partition coefficient (logP) came to 0.72.
For `COc1cc(O)ccc1O` the value was 0.47; for `O=C(O)C1c2ccccc2Oc2ccccc21`, 2.23.
As to `CCCOc1cc(N)ccc1C(=O)O`, the logP stood at 1.53.
As for `N#CC(C(=O)NC(CO)C(O)c1ccc([N+](=O)[O-])cc1)c1ccccc1` (centres undefined), the logP worked out at 1.47. The logP values of the last two compounds are within 0.2 log units of each other.
As for `O=[N+]([O-])CCO`, the log partition coefficient (logP) is -0.42.
Compound `O=C(O)c1ccc(N=C=S)cc1` yielded a lipophilicity (logP) of 3.52.
Compound `NC(=O)CCCc1ccccn1` registered a log partition coefficient (logP) of -0.01.
Regarding `C1=CC=CC=CC=C1`, the logP is 3.08.
On to `CC(CN(C)C)CN1c2ccccc2S(=O)(=O)c2ccccc21` (centres undefined), for which the logP was 2.51.
Consider `CNC(=O)Oc1cccc(Br)c1`, for which the logP was 2.25.
For `Nc1cccc(OC(=O)c2ccc(N)cc2O)c1`, the log partition coefficient (logP) was found to be 2.08. This logP and that of the compound before are within 0.2 log units of each other.
`CNCC(c1ccccc1)C(C)C` (centres undefined) showed a logP of 3.12.
Compound `CN(C)C(N(C)C)=S(I)c1ccc(Cl)c(Cl)c1Cl` (centres undefined) yielded a logP of 0.95.
For the compound `COC(=O)C(C)N(C(=O)c1ccco1)c1c(C)cccc1C` (centres undefined), the log partition coefficient (logP) worked out at 2.61.
As for `CCCN1CCCN(CCC)C1=S`, the logP stood at 2.83.
The compound `CN(C)C(=O)N(c1ccccc1)c1ccccc1` returned a logP of 2.8.
In the case of `c1ccc(-c2ncncn2)cc1` it was 1.93.
With `CCCCOc1cccc(O)c1`, the logP was 3.03.
`O=C(O)Cc1ccccc1Nc1c(Cl)cccc1Br` returned a lipophilicity (logP) of 4.64.
`NC(=O)CCN1CCc2cccc(Cl)c2CC1` displayed a log partition coefficient (logP) of 1.64.
Take `CCOC(=O)C(=Cc1ccccc1)C(C)=O`: the lipophilicity (logP) came to 2.21.
`O=C(O)CN1CCCCC1` showed a logP of -1.05.
On to `COc1cccc(CC(=O)O)c1`, for which the logP came out at 1.5.
For the compound `O=C(CI)NC(CO)C(O)c1ccc([N+](=O)[O-])cc1` (centres undefined), the logP turned out to be 1.03.
On to `C[Si](C)(C)Cc1ccccc1`, for which the logP was 4.13.
Consider `CCN(CC)C(=S)SSC(=S)N(CC)CC`, for which the logP is 3.88.
`Nc1ccc(S)cc1` came in with a log partition coefficient (logP) of 1.31.
In the case of `CN(C)C(N(C)C)=S(I)c1ccc(C#N)cc1` (centres undefined), the logP is -1.13.
`c1ccc(N=Nc2ccccc2)cc1` gave a log partition coefficient (logP) of 3.82.
`Fc1ccc(CCl)cc1`: the logP came out at 2.73.
For `CN(C)C(=O)Nc1ccccc1` the value was 0.98; for `COC(=O)c1ccc[nH]1`, 1.17.
`COc1ccc(OC)c(Cc2cnc3nc(N)nc(N)c3c2C)c1` registered a logP of 2.13.
In turn, `CCCCCCCOc1ccc(NC(=O)OCCN2CCCCC2)cc1` displayed a logP of 5.87.
In turn, `CN(C)CCOC(=O)c1ccc(C#N)cc1` showed a lipophilicity (logP) of 1.43.
`CC(=O)NC(C)C(=O)NC(CC(=O)O)C(=O)NC(C)C(=O)NC(C)(C)C` (stereo not drawn) (Ac-Ala-Asp-Ala-NHtBu; configuration not given here): the logP was -0.74.
Compound `CC(C)C(Cl)C(=O)NC(N)=O` (centres undefined) had a log partition coefficient (logP) of 1.
On to `Cc1cc(C#N)ccn1`, for which the logP was 0.81. The logP values of the last two compounds are within 0.2 log units of each other.
`CCOC(=O)c1ccco1` had a logP of 1.52.
The compound `C=C1C(=O)OC2CC(C)C3C=CC(=O)C3(C)CC12` (centres undefined) gave a logP of 1.17.
For `Cc1ccc(O)c([N+](=O)[O-])c1` the value was 2.37; for `CC(=O)c1ccc(NC=O)cc1`, 0.94.
In the case of `FCCl` it was 0.51; in that of `Cn1cnc([N+](=O)[O-])c1Sc1ncnc2nc[nH]c12`, 0.1.
The compound `N#CCC(=O)c1ccccc1` registered a lipophilicity (logP) of 0.97.
The compound `CCC(C)(C)C(=O)O` came in with a logP of 1.9.
`CNc1ccc(C)cc1`: the log partition coefficient (logP) was determined as 2.15.
Turning to `CC(=O)NC(=O)C1CCC1`, the log partition coefficient (logP) was -0.4.
With `COCc1ccccc1NC(=O)OCCN1CCCCC1`, the logP was 2.2.
Turning to `CC(C)(C)NCCO`, the logP turned out to be 0.41.
As to `CC1=NS(=O)(=O)c2ccccc2N1`, the logP stood at 0.29.
With `Nc1nc(N)nc(-c2cccc(F)c2)n1`, the logP worked out at 1.73.
The compound `O=C(O)c1c[nH]c2ccccc12` returned a logP of 1.99.
In the case of `O=C(NP(=O)(N1CC1)N1CC1)c1cccc(Br)c1` it was 1.43; in that of `O=NN1CCSCC1`, 0.4; in that of `CCCCOCCO`, 0.83.
Regarding `N#Cc1c[nH]c2ccccc12`, the logP was found to be 2.32.
In the case of `CCOCc1ccccc1NC(=O)OCCN1CCCCC1`, the logP turned out to be 2.72.
Consider `O=[N+]([O-])c1cccc(-c2ccccc2)c1`, for which the logP was found to be 3.87.
With `CCC(=O)OC1(C(=O)CCl)C(C)CC2C3CCC4=CC(=O)C=CC4(C)C3C(O)CC21C` (centres undefined), the logP stood at 3.34.
On to `Nc1cccc(Cl)c1`, for which the logP was determined as 1.88.
In turn, `O=C(O)c1cc(Cl)ccc1O` returned a logP of 3.09.
In the case of `OCCCCCc1ccncc1` it was 1.39; in that of `O=S(=O)(c1ccccc1)c1ccccc1`, 2.4.
For the compound `CNc1ccc([N+](=O)[O-])cc1`, the logP amounted to 2.04.
On to `O=C1CCC(=O)N1c1ccccc1`, for which the logP was determined as 0.06.
`NCC(F)(F)F` registered a lipophilicity (logP) of 0.24.
As to `O=C(O)Cc1cccc(O)c1`, the log partition coefficient (logP) is 0.85.
The compound `COc1ccc(CO)cc1` returned a logP of 1.1.
The compound `CC(C)C(=O)OCC1CCC(n2cnc3c(=O)[nH]cnc32)O1` (centres undefined) yielded a logP of 0.02.
For `O=C(O)CS` the value was 0.09; for `BrCCc1ccccc1`, 3.09.
`Cc1ccc(O)c2ncccc12` displayed a log partition coefficient (logP) of 2.37.
`CCOC(=O)c1ccc(N)cc1` displayed a logP of 1.86.
The compound `CCOP(=O)(OCC)SCn1nnc2ccccc2c1=O` yielded a logP of 1.63.
On to `Oc1c(Br)cc(Br)cc1Br`, for which the logP amounted to 4.13.
Regarding `CCC(N)=O`, the logP was -0.66.
Take `O=C(O)CCCc1c[nH]c2ccccc12`: the logP is 2.3.
Consider `c1cncc([C@@H]2CCCN2)c1`, for which the log partition coefficient (logP) is 0.17.
The compound `CON(C)C(=O)Nc1ccc(OCCCCOc2ccccc2)cc1` had a logP of 3.57.
In turn, `Oc1cccc(Cl)c1Cl` yielded a logP of 2.84.
In turn, `CC(C)c1cnc(NS(=O)(=O)c2ccc(N)cc2)nc1` gave a logP of 1.23.
Compound `CC(C)CCC(=O)c1ccoc1` yielded a lipophilicity (logP) of 2.76.
Turning to `N#Cc1ccncc1C#N`, the logP was found to be 0.24.
In turn, `COCC(=O)N(c1c(C)cccc1C)C(C)C(=O)OC` (centres undefined) registered a logP of 1.65.
In turn, `O=C(O)COc1ccc([N+](=O)[O-])cc1` returned a logP of 1.48. This logP and that of the compound before are within 0.2 log units of each other.
For `Cc1cccc(N2C(=O)CCC2=O)c1`, the logP is 0.57.
As for `COP(=S)(OC)Oc1ccc([N+](=O)[O-])cc1`, the log partition coefficient (logP) turned out to be 2.86.
On to `C=CCCBr`, for which the logP is 2.53.
As for `N=C(N)NS(=O)(=O)c1ccc(N)cc1`, the logP was -1.22.
As for `COc1ccc(OC(=O)N(C)C)cc1`, the logP is 1.53.
On to `CC(=O)Nc1cccc2cccnc12`, for which the lipophilicity (logP) stood at 1.91.
`CCN(CC)N=O` had a logP of 0.48.
In the case of `NC(=O)c1ccoc1`, the log partition coefficient (logP) stood at 0.09.
